Values after ≈ are worked out from the molar mass of the structure shown.

The conditions of the data set: buffer; pH 7.4; 200.0 µM.
On to `O=C(NCCc1cnc[nH]1)c1ccc(-c2ccccc2)cc1`, for which the solubility (kinetic) was found to be 28.2 µg/mL (≈ 96.8 µM).
`O=C1OCC2=C1C(c1ccc(F)cc1)CC(=O)N2c1ccccc1` (stereo not given) yielded a kinetic solubility of over 48.5 µg/mL.
As to `CC(=O)c1cccc(Nc2cc(C)nc3ccccc23)c1.Cl`, the solubility (kinetic) was found to be 27.8 µg/mL.
Compound `Cc1cccc(N2CCN(C(=O)NC3CCCCC3)CC2)c1C` gave a kinetic solubility of 0.7 µg/mL (≈ 2.22 µM).
The value for `Cc1nccn1CCC(=O)Nc1ccc(Cl)cc1` was over 39.6 µg/mL.
The value for `CCc1ccccc1NC(=O)c1ccc(S(=O)(=O)N2CCCC2)cc1` was 12.2 µg/mL (≈ 34 µM); that for `Cc1ccccc1N1CC(C(=O)NC2CCCC2)CC1=O` (stereo not given) was over 43 µg/mL.
As for `O=C(Nc1nccs1)c1cn2ccccc2n1`, the figure is 36.2 µg/mL (≈ 148 µM).
Compound `C=CCn1c(O)c(C(CC)=Nc2ccc(N(C)C)cc2)c(=O)[nH]c1=O` yielded a solubility (kinetic) of 1.5 µg/mL (≈ 4.38 µM).
The compound `OC(CNCc1ccccc1Cl)COc1ccc(F)cc1` (stereo not given) yielded a kinetic solubility of over 46.5 µg/mL.
The value for `CC(NS(=O)(=O)/C=C/c1ccccc1)C(=O)O` (stereo not given) was 34.2 µg/mL (≈ 134 µM); that for `COc1ccc(NC(=O)C(Cc2ccccc2)n2cccc2)cc1` (stereo not given) was 26.5 µg/mL (≈ 82.7 µM); that for `CCS(=O)c1ccccc1C(=O)OCC(=O)Nc1ccc2ccccc2c1` (stereo not given) was 45.8 µg/mL (≈ 120 µM).
As for `COc1cc2c(cc1OC)C(C)N(C(=O)Nc1ccc(F)cc1)CC2` (stereo not given), the figure is 18.4 µg/mL (≈ 53.4 µM); as for `COc1ccc(/C=C/c2noc(-c3ccccc3OC(C)=O)n2)cc1`, 0.6 µg/mL (≈ 1.78 µM).
Consider `C#CCOc1ccc(/C=C2/C(=O)N(c3cccc(C(=O)O)c3)N=C2C)cc1OC`, for which the kinetic solubility is over 58.6 µg/mL.
As for `CCOC(=O)CC(c1ccc([N+](=O)[O-])cc1)n1c(C)ccc1C` (stereo not given), the figure is 32.9 µg/mL (≈ 104 µM); as for `CC(=O)Nc1c(O)nc(C)[nH]c1=O`, over 27.5 µg/mL; as for `O=C(Nc1sc2c(c1C(=O)O)CCCCC2)c1ccccc1`, over 47.3 µg/mL.
The value for `CCCN1C(=S)c2ccccc2C1c1ccccc1` (stereo not given) was 8.8 µg/mL (≈ 32.9 µM); that for `O=C(CNC(=O)c1ccc(Cl)cc1)OCN1C(=O)c2ccccc2C1=O` was 7.7 µg/mL (≈ 20.7 µM); that for `CCC(=O)NCCc1nc2cc(NC(=O)Nc3ccccc3)ccc2n1C` was over 54.8 µg/mL.
The value for `CC(=O)c1ccc(OC(=O)CCNC(=O)c2ccccc2)cc1` was 27.6 µg/mL (≈ 88.6 µM); that for `COc1ccccc1Nc1nc(C)nc2c1oc1ccccc12.Cl` was 0.5 µg/mL; that for `COc1ccc(NC(=O)NC2CCCCCCC2)cc1OC` was 2.7 µg/mL (≈ 8.81 µM).
As for `CCc1ccc(NC(=O)COC(=O)/C=C/c2ccco2)cc1`, the kinetic solubility was determined as 4.8 µg/mL (≈ 16 µM).
`O=C(NCc1cccnc1)c1ccccc1NC(=O)c1c(F)cccc1F` gave a solubility (kinetic) of over 55.1 µg/mL.
The compound `O=C(Nc1ccc2c(c1)OCO2)N1CCCc2ccccc21` displayed a solubility (kinetic) of over 44.4 µg/mL.
As for `Cc1ccc(Sc2ncccc2N)cc1`, the figure is 32.2 µg/mL (≈ 149 µM); as for `CCOc1ccc(Cl)cc1/C=C1/C(=O)ON=C1C`, 29.3 µg/mL (≈ 110 µM); as for `CC1(C)CC(=O)c2cnc(N3CCc4ccccc43)nc2C1`, 0.4 µg/mL (≈ 1.36 µM).
The value for `O=C(Nc1ccon1)Nc1cccc(Cl)c1Cl` was 1.9 µg/mL (≈ 6.98 µM); that for `COc1ccc(NC(=O)c2cc(-c3ccc(C)cc3)on2)cc1` was under 0.3 µg/mL; that for `Cc1ccc(C)c(Nc2c([N+](=O)[O-])ccc3nonc23)c1` was 0.2 µg/mL (≈ 0.704 µM).
The value for `Cc1ccc(C)c(Cn2c(=O)n(C)c(=O)c3sccc32)c1` was 0.4 µg/mL (≈ 1.33 µM); that for `Cn1cc(S(=O)(=O)NCC2CCCO2)c(=O)n(C)c1=O` (stereo not given) was over 45.5 µg/mL.
The compound `CCCCNC(=O)CN1C(=O)NC(CCc2ccccc2)C1=O` (stereo not given) gave a solubility (kinetic) of 33.8 µg/mL (≈ 106 µM).
`CNC(=O)N1c2ccccc2C=Cc2ccccc21` gave a kinetic solubility of over 37.5 µg/mL.
The value for `O=C(NN1CCOCC1)c1ccccc1Br` was over 42.8 µg/mL; that for `Cn1cc(C=C2C(=O)NC(=O)NC2=O)c2ccccc21` was 2.6 µg/mL (≈ 9.66 µM).
The value for `Cc1cc(=O)cc(C)n1-c1ccccc1Br` was 39.8 µg/mL (≈ 143 µM); that for `COc1ccc(OC)c(NC(=O)COC(=O)[C@H](Cc2ccccc2)NC(=O)c2ccco2)c1` was 5.7 µg/mL (≈ 12.6 µM); that for `O=C(CSC(=O)c1ccccc1)Nc1ccccc1F` was 9.8 µg/mL (≈ 33.9 µM).
In turn, `CN(C(=O)COC(=O)c1cc(=O)[nH]c2ccccc12)c1ccccc1` showed a kinetic solubility of 11.6 µg/mL (≈ 34.5 µM).
The compound `O=C(CSc1ccccc1F)Nc1ccc2c(c1)OCO2` yielded a kinetic solubility of 45.4 µg/mL (≈ 149 µM).
As for `COc1ccc(NC(=O)CCCC(=O)c2ccccc2)cc1`, the figure is 7.1 µg/mL (≈ 23.9 µM); as for `Cc1cc(Br)ccc1NC(=O)CNC(=O)c1cnn(C)c1`, over 52.7 µg/mL.
As for `Cc1cc2cc(OCc3ccccc3)ccc2n1C`, the figure is under 0.5 µg/mL; as for `O=C1OC(c2ccc(F)cc2)=N/C1=C\C=C/c1ccccc1`, 19.6 µg/mL (≈ 66.8 µM).
In turn, `CCCOC(=O)c1ccc(NC(=O)Cc2cccs2)cc1` gave a kinetic solubility of 24 µg/mL (≈ 79.1 µM).
The value for `COc1ccc(C(=O)Nc2ccc(C(=O)c3ccccc3)cc2)cc1` was under 0.7 µg/mL.
As for `COc1ccccc1N(CC(=O)N1CCOCC1)S(C)(=O)=O`, the figure is over 49.3 µg/mL; as for `Cc1ccc(C)c(NC(=O)c2cc(C)nc3ccccc23)c1`, 33.5 µg/mL (≈ 115 µM); as for `Cc1ccc(NC(=O)N2CCN(C(=O)C3CCCO3)CC2)cc1` (stereo not given), over 47.6 µg/mL.
As for `Cc1ccccc1NC(=S)NC(=O)/C=C/c1ccco1`, the figure is 38.3 µg/mL (≈ 134 µM).
`COc1ccc(CCNC2CCCCCC2)cc1` had a kinetic solubility of over 37.1 µg/mL.
As for `CN(CC(=O)Nc1ccccc1C(=O)NC1CC1)Cc1ccco1`, the figure is over 49.1 µg/mL.
The value for `COc1ccc(NC(=O)c2cc(F)c(F)cc2Cl)cc1Cl` was under 0.7 µg/mL; that for `CN/C=C(/Cl)P(=O)(OC(C)C)OC(C)C` was over 38.4 µg/mL; that for `COc1ccc2nc(NC(=O)C3CC(=O)N(c4ccccc4)C3)sc2c1` (stereo not given) was 0.7 µg/mL (≈ 1.91 µM).
The value for `O=C(NCCc1ccc([N+](=O)[O-])cc1)c1ccccc1` was 14.2 µg/mL (≈ 52.5 µM); that for `S=C(NCc1ccco1)N1CCN(C/C=C/c2ccccc2)CC1` was over 51.2 µg/mL.
Compound `O=C1COc2ccc(C(=O)NC3CC3)cc2N1` gave a solubility (kinetic) of over 34.8 µg/mL.
The compound `Cc1ccc(C)c(NC(=O)C2CC(O)CN2C(=O)Oc2ccccc2)c1` (stereo not given) had a solubility (kinetic) of 45.4 µg/mL (≈ 128 µM).
The value for `CC1(C)CC2CC(C)(CN2Cc2cccc([N+](=O)[O-])c2)C1` (stereo not given) was 5.2 µg/mL (≈ 18 µM); that for `CCOc1ccc(N=Cc2ccc3ccccc3c2)cc1` was 1.5 µg/mL (≈ 5.45 µM).
The value for `Cc1cc(C)c(C#N)c(Nc2cccc(Br)c2)n1` was under 0.2 µg/mL; that for `COc1cccc(C(=O)Nc2ccc3[nH]c(=O)[nH]c3c2)c1OC` was 27.7 µg/mL (≈ 88.4 µM).
As for `Cc1c(C=O)c2cc(OCc3ccccc3)ccc2n1C`, the figure is under 0.6 µg/mL; as for `Oc1cccc(Nc2nc(N3CCOCC3)nc(N3CCOCC3)n2)c1`, 46.1 µg/mL (≈ 129 µM); as for `Cc1ccc(CNC(=O)c2ccc(N(C)C)cc2)cc1`, 3.2 µg/mL (≈ 11.9 µM).
On to `CCCSc1sc(C(=O)OC)c(-c2cccs2)c1C#N`, for which the solubility (kinetic) is under 0.7 µg/mL.
The compound `O=P(c1ccccc1)(c1ccccc1)C(O)c1ccccn1` (stereo not given) showed a solubility (kinetic) of over 46.4 µg/mL.
As for `CCC(C)c1ccc(S(=O)(=O)N2CCN(c3ccccn3)CC2)cc1` (stereo not given), the figure is under 0.3 µg/mL; as for `O=C1CC(N2CCC(c3nc4ccccc4o3)CC2)C(=O)N1` (stereo not given), 43.1 µg/mL (≈ 144 µM).

For the origin of these results see PubChem BioAssay AID1996.
